Measured values published in patent publication US10562903B2, “Bridged piperidine derivatives” (Hoffmann-La Roche Inc., priority 2015, dated 2020).

Target: γ-secretase (Homo sapiens, UniProt P49768)
Assay: Cellular γ-secretase assay (inhibition of Aβ42 secretion, AlphaLisa)
Assay type: cell-based
Conditions: Human neuroglioma H4 cells overexpressing human APP695 Swedish double mutation (K595N/M596L); 24 hr compound incubation; secreted Aβ42 in supernatant
Method: Human neuroglioma H4 cells overexpressing human APP695 with the Swedish double mutation (K595N/M596L) were plated at 30,000 cells/well/100 μl in 96-well plates in IMDM media containing 10% FCS, 0.2 mg/l Hygromycin B and incubated at 37° C., 5% CO2.
3-4 hr post plating, compounds are a diluted in media and 50 μl is added as 1.5-fold concentrate to achieve the final concentration. Compound incubation is performed for 24 hr. Final doses typically range from 4 μM down to 0.0013 μM in half-log steps resulting in a eight point dose response curve.
Appropriate controls using vehicle only and reference compound were applied to this assay. The final concentration of Me2SO was 0.4%.
After incubation at 37° C., 5% CO2, the supernatant was subjected to quantification of secreted Aβ42 by the means of an AlphaLisa assay kit (Human Amyloid beta 1-42 Kit: Cat # AL203C, Perkin Elmer). 20 μl of the cell culture supernatant was transferred to an assay plate. Then 10 μl of a mixture of the AlphaLisa coupled capture antibody and the biotinylated detection antibody was added and incubated for 3 hours at room temperature while softly shaking the assay plate. After a further addition of 20 μl of the Donor beads the assay plate was incubated for 30 min at room temperature and constant shaking without exposure to direct light. The assay plate was then read on a Paradigm AlphaLisa Reader using the build-in program with excitation at 680 nm and emission at […].
The measured signals were then used to calculate IC50 values for inhibition of Aβ42 secretion by nonlinear regression fit analysis using XLfit 5.3 software (IDBS).

EC50 [nM] | Molecule
27 | Cc1cc(N2C[C@H]3CC[C@@H](C2)[C@H]3Nc2nc3c(OC(C)C(F)(F)F)cccn3n2)on1 (single isomer, unassigned) [Example 43, N-[(8 endo)-3-(3-methyl-1,2-oxazol-5-yl)-3-azabicyclo[3.2.1]octan-8-yl]-8-[(2R or 2S)-1,1,1-trifluoropropan-2-yl]oxy-[1,2,4]triazolo[1,5-a]pyridin-2-amine]
43 | Cc1noc(N2CC3CCC(C2)C3Nc2nc3c(O[C@H](C)C(F)(F)F)ccc(C(F)(F)F)n3n2)n1 (single isomer, unassigned) [Example 81, N-[(8-endo)-3-(3-methyl-1,2,4-oxadiazol-5-yl)-3-azabicyclo[3.2.1]octan-8-yl]-5-(trifluoromethyl)-8-[(1R or 1S)-2,2,2-trifluoro-1-methyl-ethoxy]-[1,2,4]triazolo[1,5-a]pyridin-2-amine]
6 | Cc1cc(N2CC3CCC(C2)C3Nc2nc3c(O[C@H](C)C(F)(F)F)nccn3n2)sn1 (single isomer, unassigned) [Example 35, N-[(8 endo)-3-(3-methylisothiazol-5-yl)-3-azabicyclo[3.2.1]octan-8-yl]-8-((2R or 2S)-1,1,1-trifluoropropan-2-yl)oxy)-[1,2,4]triazolo[1,5-a]pyrazin-2-amine]
6 | Cc1cc(N2CC3CCC(C2)C3Nc2nc3c(O[C@@H](C)C(F)(F)F)nccn3n2)sn1 (single isomer, unassigned) [Example 36, N-[(8 endo)-3-(3-methylisothiazol-5-yl)-3-azabicyclo[3.2.1]octan-8-yl]-8-((2S or 2R)-1,1,1-trifluoropropan-2-yl)oxy)-[1,2,4]triazolo[1,5-a]pyrazin-2-amine]

Molecule | EC50 [nM]
Cc1nsc(N2CC3CCC(C2)C3Nc2nc3c(OC(C)C(F)(F)F)cccn3n2)n1 (single isomer, unassigned) [Example 5, N-[(8-endo)-3-(3-methyl-1,2,4-thiadiazol-5-yl)-3-azabicyclo[3.2.1]octan-8-yl]-8-[(2R or 2S)-1,1,1-trifluoropropan-2-yl]oxy-[1,2,4]triazolo[1,5-a]pyridin-2-amine] | 27
Cc1nsc(N2CC3CCC(C2)C3Nc2nc3c(OC(C)C(F)(F)F)cccn3n2)n1 (single isomer, unassigned) [Example 6, N-[(8 endo)-3-(3-methyl-1,2,4-thiadiazol-5-yl)-3-azabicyclo[3.2.1]octan-8-yl]-8-[(2S or 2R)-1,1,1-trifluoropropan-2-yl]oxy-[1,2,4]triazolo[1,5-a]pyridin-2-amine] | 16
N[(8 endo)-3-(6-methylpyrimidin-4-yl)-3-azabicyclo[3.2.1]octan-8-yl]-8-(2,2,3,3,3-pentafluoropropoxy)-[1,2,4]triazolo[1,5-a]pyridin-2-amine [Example 54] | 14
